The values below come from publication PMC9605374 (Marine Drugs, 2022).

SMILES strings stand for the structures.

For the experiment, the system named is 22Rv1 cells. The experiment is described as follows: Annexin-V-FITC/PI double staining, flow cytometry. Format: cell-based, human. The method, then:
Figure 4 Investigation of the proapoptotic activity of NB. Flow cytometry analysis of 22Rv1 cells after 48 h of treatment. (A) Cell cycle and DNA fragmentation analysis. Treated cells were stained with PI and analyzed using a flow cytometry technique. Sub-G1 population was assumed to be apoptotic cells containing fragmentated DNA. (B) Analysis of phosphatidylserine externalization. Treated cells were double-stained with annexin-V-FITC and PI and analyzed using the flow cytometry technique. Cells of the low left quadrant (annexin-V-FITC^−/PI^−) were considered as alive cells. The Cell Quest Pro v.5.2.1 software (BD Bioscience, San Jose, CA, USA) was used to analyze and quantify the FACS data. Cells treated for 48 h with 10 µM of anisomycin were used as a positive control. Number of replicates n = 3. Statistical significance: * p < 0.05 (ANOVA). […]
Externalization of phosphatidylserine is a distinct marker of apoptotic cell death that can be detected by flow cytometry using annexin-V-FITC and propidium iodide (PI) double staining. […] Cells were harvested utilizing trypsin, stained with annexin-V-FITC and propidium iodide, and analyzed using FACS Calibur (BD Bioscience, San Jose, CA, USA).

`COc1ccc(C2SSC34CC5(O)C(Cl)C=CC(O)C5ON3C(=O)C2N(C)C4=O)c(O)c1OC` (centres unmarked) [NB, N-methylpretrichodermamide B]: where the note is “22Rv1, 48 h”, the phosphatidylserine externalization entry was “caused DNA fragmentation and phosphatidylserine externalization”. Also, the “effect of pretreatment with pan-caspase inhibitor zVAD on drug-induced cell death” value (22Rv1, zVAD 100 µM 1 h pretreatment, 48 h) was “could not significantly inhibit”.
